Laboratory results from PMC12150326 (The Journal of Organic Chemistry, 2025).
“And” between values parts separate entries of the source, which are not always exact repeats. Identical values can stand only once. Like-named read-outs stand apart in the source and are kept apart here.

Assays:
DMS 114 = system: DMS 114; parameters: method as in NCI-60 database; settings: DMS 114 ref NCI-60 database, cited from earlier work
U251 = system: U251; parameters: method as in NCI-60 database; settings: U251 ref NCI-60 database, cited from earlier work
SW-620 = system: SW-620; parameters: method as in NCI-60 database; settings: SW-620 ref NCI-60 database, cited from earlier work
SNB-75 = system: SNB-75; parameters: method as in NCI-60 database; settings: SNB-75 ref NCI-60 database, cited from earlier work
IGROV1 = system: IGROV1; parameters: method as in NCI-60 database; settings: IGROV1 ref NCI-60 database, cited from earlier work
M19-MEL = system: M19-MEL; parameters: method as in NCI-60 database; settings: M19-MEL ref NCI-60 database, cited from earlier work
KM20L2 = system: KM20L2; parameters: method as in NCI-60 database; settings: KM20L2 ref NCI-60 database, cited from earlier work
SK-OV-3 = system: SK-OV-3; parameters: method as in NCI-60 database; settings: SK-OV-3 ref NCI-60 database, cited from earlier work
PC3 = assay: Cell-growth inhibition (CellTiter); format: cell-based, human; settings: Homo sapiens, PC-3, 72 h, read-out: Cell Growth Inhibition GI50 ± SE
Procedure: (§1) Inhibition of cell growth was determined by using standard procedures. Cell lines were obtained from the NCI anticancer drug screen and maintained in DMEM medium supplemented with 10% fetal bovine serum. Growing cells were exposed to serial dilutions of each compound for 3 days. Cell growth was determined with CellTiter Assay Reagent (Promega), and growth parameters, including inhibition of growth, were measured by using the methods specified by the manufacturer.

M14 = assay: Cell-growth inhibition (CellTiter); format: cell-based, human; settings: Homo sapiens, M14, 72 h, read-out: Cell Growth Inhibition GI50 ± SE
Procedure: as §1

A549 = assay: Cell-growth inhibition (CellTiter); format: cell-based, human; settings: Homo sapiens, A549, 72 h, read-out: Cell Growth Inhibition GI50 ± SE
Procedure: as §1

RXF-631 = system: RXF-631; parameters: method as in NCI-60 database; settings: RXF-631 ref NCI-60 database, cited from earlier work

COc1cc2c(c(OC)c1OC)-c1ccc(OC)c(=O)cc1[C@@H](NC(C)=O)CC2 [Colchicine, (−)-Colchicine]
Log10LC50 (DMS 114): > -4.00 Molar
Log10GI50 (DMS 114; listed as 757/1): -4.75 Molar
Log10GI50 (DMS 114; listed as 757/21): < -8.00 Molar
Log10TGI (DMS 114; listed as 757/21): -7.73 Molar and -7.65 Molar
GI50 (U251): 30 nM
Log10GI50 (U251): -7.53 Molar
Log10GI50 (U251; listed as 757/1): -7.38 Molar
Log10LC50 (U251; listed as 757/1): > -4.00 Molar
Log10TGI (U251; listed as 757/1): > -4.00 Molar
Log10GI50 (U251; listed as 757/9): -7.47 Molar
Log10LC50 (U251; listed as 757/21): -4.31 Molar
Log10TGI (U251; listed as 757/21): -6.89 Molar and -6.80 Molar
GI50 (SW-620): 20 nM
Log10GI50 (SW-620): -7.66 Molar
Log10LC50 (SW-620): > -4.00 Molar
Log10GI50 (SW-620; listed as 757/1): -7.46 Molar
GI50 (SNB-75): 910 nM
Log10GI50 (SNB-75): -6.04 Molar
Log10LC50 (SNB-75): > -4.00 Molar
Log10GI50 (SNB-75; listed as 757/1): < -8.00 Molar
Log10TGI (SNB-75; listed as 757/1): -5.53 Molar
Log10TGI (SNB-75; listed as 757/9): < -8.00 Molar
Log10TGI (SNB-75; listed as 757/21): > -4.00 Molar
GI50 (IGROV1): 52 nM
Log10GI50 (IGROV1): -7.28 Molar
Log10LC50 (IGROV1): > -4.00 Molar
Log10GI50 (IGROV1; listed as 757/9): < -8.00 Molar
Log10TGI (IGROV1; listed as 757/9): -7.80 Molar
Log10TGI (IGROV1; listed as 757/21): > -4.00 Molar
Log10LC50 (M19-MEL): > -4.00 Molar
Log10TGI (M19-MEL): > -4.00 Molar
Log10GI50 (M19-MEL; listed as 757/21): < -8.00 Molar
Log10GI50 (KM20L2; listed as 757/1): < -8.00 Molar and -7.72 Molar
Log10LC50 (KM20L2; listed as 757/1): -7.10 Molar
Log10GI50 (KM20L2; listed as 757/21): -7.77 Molar
Log10LC50 (KM20L2; listed as 757/21): -7.19 Molar
Log10TGI (KM20L2; listed as 757/21): -7.48 Molar
Log10LC50 (SK-OV-3): > -4.00 Molar
Log10GI50 (SK-OV-3; listed as 757/1): -4.43 Molar
Log10TGI (SK-OV-3; listed as 757/1): -4.07 Molar and -4.21 Molar
Log10GI50 (SK-OV-3; listed as 757/9): -7.55 Molar and -7.81 Molar
Log10TGI (SK-OV-3; listed as 757/9): -7.17 Molar
Log10GI50 (SK-OV-3; listed as 757/21): -7.71 Molar and -7.65 Molar
GI50 (PC3): 20 ± 5 nM
GI50 (M14): 10 ± 1 nM
GI50 (A549): 40 nM
Log10LC50 (RXF-631): > -4.00 Molar
Log10TGI (RXF-631): > -4.00 Molar
Log10GI50 (RXF-631; listed as 757/21): -7.45 Molar
